Marks after values point to notes of the source that are not given here.
Assays:
[1] = test system: CTG-0165 erlotinib-insensitive primary NSCLC human TumorGraft; assay: NSCLC TumorGraft model CTG-0165; format: in vivo, mice; conditions: for % Tumor Growth Inhibition: CTG-0165, 37 days
Method: Methods (for the experiments shown in FIGS. 10 and 11) • Female immunocompromised nu/nu mice (Harlan) between 6-9 weeks of age were housed on irradiated papertwist-enriched ⅛″ corncob bedding (Sheperd) in individual HEPA ventilated cages (Innocage® IVC, Innovive USA) on a 12-hour light-dark cycle at 68-74° F. (20-23° C.) and 30-70% humidity. Animals were fed water ad libitum (reverse osmosis, 2 ppm Cl2) and an irradiated Test rodent diet (Teklad 2919) consisting of 19% protein, 9% fat, and 4% fiber. • Tumor Models: Champions TumorGraft models of NSCLC are owned by Champions Oncology. In this study, animals were implanted unilaterally on the right flank with tumor fragments harvested from host animals. […] Erlotinib (manufacturer: OSI Pharmaceuticals; National Drug Code: 50242-062-01; Lot #: US0002) was formulated using 100% PEG-400 as the vehicle according to manufacturer's specifications.
Efficacy measurements: Beginning Day 0, tumor dimensions were measured twice weekly by digital caliper (Fowler Ultra-Cal IV) and data including individual and mean estimated tumor volumes (Mean TV±SEM) were recorded for each group; tumor volume was calculated using the formula TV=width^2×length×0.52. At study completion, percent tumor growth inhibition (% TGI) values were calculated and reported for each treatment group (T) versus control (C) using initial (i) and final (f) tumor measurements by the formula: % TGI=1−Tf−Ti/Cf−C; single agent or combination therapies resulting in a TGI>50 at study completion are considered active in the tested model at the evaluated treatment regimen according to NCI guidelines. Individual mice reporting a tumor volume ≤50% of the Day 0 measurement for two consecutive measurements over a seven day period were considered partial responders (PR). If the PR persisted until study completion, percent tumor regression (% TR) was determined using the formula: % TR=1−Tf/Ti×100; a mean value was calculated if multiple PR mice occurred in one group. Individual mice lacking palpable tumors (<4×4 mm^2 for two consecutive measurements over a seven day period) were classified as complete responders (CR); a CR that persisted until study completion was considered a tumor-free survivor (TFS). TFS animals are excluded from efficacy calculations. Statistical differences in tumor volume were determined using a two-tailed One-Way Analysis of Variance (ANOVA) followed by the Dunett's multiple comparisons test comparing treated groups with control and combinations with standard agent alone when possible. All data collected in this study was managed electronically and stored on a redundant server system.

[2] = test system: EBC-1 Human NSCLC xenografts; assay: Anti-tumor efficacy in EBC-1 NSCLC xenografts; format: in vivo, mice
Excerpt: (§1) The human NSCL cancer cell line, EBC-1 was purchased from ATCC (American Tissue Culture Collection, Manassas, Va.) and cultured in DMEM medium with 10% fetal bovine serum (FBS, Cat# SH3007003, Hyclone Laboratory Inc, Logan, Utah). Female Nu/Nu mice (6-8 weeks, Charles River Laboratory, Wilmington, Mass.) were maintained 5/cage in microisolator units on a standard laboratory diet (Teklad Labchow, Harlan Teklad, Madison, Wis.). Animals were housed under humidity- and temperature-controlled conditions and the light/dark cycle was set at 12-hour intervals. Mice were quarantined at least 1 week prior to experimental manipulation. […] The mice were then monitored daily. […] The length (L) and width (W) of each tumor was measured with a vernier caliper and the mouse body weight was determined every 2-3 days. The tumor volumes were then calculated with the formula of 0.5236*L*W*(L+W)/2. […] Plasma and tumor samples were obtained at 2 hours post final dose at each dose level, and the compound levels in plasma and tumor lysates were measured by LC-MS/MS. The TGI values were calculated at the end of study by comparing the tumor volumes (TV) of each CEP-40783-treatment group with those of vehicle-treated group with the following formula: 1-(the last day TV of compound-treated group/the last day TV of vehicle-treated group).

PK in monkey = conditions: in vivo
[3] = test system: GTL-16 gastric carcinoma xenografts; assay: Anti-tumor efficacy in GTL-16 gastric carcinoma xenografts; format: in vivo, mice; conditions: 10 and 30 mg/kg oral qd
Excerpt: as §1, with “gastric” for “NSCL”, “GTL-16” for “EBC-1”

[4] = intravenous, 0.5 mg/kg i.v. and p.o.

## COc1cc2nccc(Oc3ccc(NC(=O)c4cn(C(C)C)c(=O)n(-c5ccc(F)cc5)c4=O)cc3F)c2cc1OC [CEP-40783, 3-(4-Fluorophenyl)-1-isopropyl-2,4-dioxo-1,2,3,4-tetrahydropyrimidine-5-carboxylic acid [4-(6,7-dimethoxyquinolin-4-yloxy)-3-fluorophenyl]-amide]
[1]; 10 mg/kg po/qd
  % Tumor Growth Inhibition: 116%*†
[1]; 30 mg/kg po/qd
  % Tumor Growth Inhibition: 118%*†
[1]; CTG-0165, oral 10 mg/kg and 30 mg/kg
  efficacy in erlotinib-insensitive TumorGraft: tumor regressions
[2]; 3 mg/kg oral qd
  anti-tumor efficacy (tumor volume): tumor stasis and partial regressions
[2]; 10 mg/kg and 30 mg/kg oral qd
  anti-tumor efficacy (tumor volume): tumor regressions
PK in monkey; 0.5 mg/kg i.v. and p.o.
  Cmax: 0.26 µg/mL
PK in monkey; [4]
  Vd: 1.2 L/kg
  clearance: 0.132 L/h/kg
PK in monkey; iv, 0.5 mg/kg i.v., read-out: t1/2 i.v. (converted)
  half-life: 14.5 h
PK in monkey; oral, 0.5 mg/kg i.v. and p.o.
  bioavailability: 77%
PK in monkey; po, 0.5 mg/kg p.o.
  AUC(0-t): 3.03 µg·h/mL
[3]
  anti-tumor efficacy (tumor volume): tumor stasis and regressions

Reference: patent publication US10028956B2, “Methods of treating various cancers using an AXL/cMET inhibitor in combination with other agents” (Ignyta, Inc., priority 2013, dated 2018)
